Read-outs that look alike come from different tables or passages of the source.

Experimental findings from patent US5286733A, “Substituted 3-piperidinealkanoates and alkanones and compositions and method of use thereof” (Sterling Winthrop Inc., priority 1992, dated 1994) are described below.

In the assay the target is T1, sigma receptors (Cavia porcellus, UniProt Q60492).
T1 construct: Brain tissue was prepared from male Hartley guinea pigs; tissue Hazelton Labs, Denver, Pa; (animals); host or cells: guinea pig brain membranes
T1 sequence (Q60492 whole entry): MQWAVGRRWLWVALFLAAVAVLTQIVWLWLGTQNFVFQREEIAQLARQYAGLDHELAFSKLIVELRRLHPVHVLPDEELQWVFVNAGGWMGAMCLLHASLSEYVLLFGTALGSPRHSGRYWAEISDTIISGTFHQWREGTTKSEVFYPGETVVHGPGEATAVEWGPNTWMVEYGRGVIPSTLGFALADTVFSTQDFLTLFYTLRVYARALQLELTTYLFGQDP
Put plainly: sigma receptor binding activity, [3H]-(+)-pentazocine binding to guinea pig brain membranes. Also on record: species or system male Hartley guinea pigs. Conditions: for inhibition at 10 µM: read-out: Percent Inhibition (of [3H]-(+)-pentazocine binding). The procedure:
Brain tissue was prepared from male Hartley guinea pigs (Hazelton Labs, Denver, Pa.) which were anesthetized with CO2 and sacrificed by decapitation. All animal care and use procedures were in accord with the "Guide for the Care and Use of Laboratory Animals" (NIH Publ. No 86-23, 1985). Homogenization was performed in 10 volumes (wt/vol) of 0.32M sucrose with a Brinkmann Polytron at setting 5, 30 sec. The homogenate was centrifuged at 900 x g for 10 min at 4° C., and the supernatant was collected and centrifuged at 22,000 x g for 20 min at 4° C. The pellet was resuspended in 10 volumes of Tris-HCl buffer (50 mM, pH 7.4), incubated at 37° C. for 30 min, and centrifuged at 22,000 x g for 20 min at 4° C. Following this, the pellet was resuspended in Tris buffer and frozen in 5-10 mL aliquots corresponding to a tissue concentration of 100 mg/mL, at -70° C. Binding characteristics of the membranes were stable for at least one month when stored at -70° C.
On the day of the assay, membrane aliquots were thawed, resuspended in fresh Tris-HCl buffer and stored on ice until use. Each assay tube contained 100 μL of [3H]-(+)-pentazocine at a final concentration of approximately 0.5 nM, 100 μL of various concentrations of the compounds of interest, 500 μL of the tissue suspension and 300 μL of buffer to a final assay volume of 1 mL and a final tissue concentration of approximately 8 mg/tube, corresponding to approximately 0.15 mg protein/tube. Nonspecific binding was defined by addition of a final concentration of 1 μM haloperidol to blank tubes. All tubes were incubated at 37° C. for 150 min before termination of the reaction by rapid filtration over Whatman GF/B glass fiber filters that were presoaked in a solution of 0.5% polyethyleneimine for at least 1 hr prior to use. Filters were washed with three 4 ml volumes of cold Tris-HCl buffer.
Following addition of scintillation cocktail, samples were allowed to equilibrate for at least 4 hr. The amount of bound radioactivity was determined by liquid scintillation spectrometry using a Beckman LS 5000 TA liquid scintillation counter with an efficiency for tritium of approximately 60%. The results are reported as a percent (%) inhibition of binding at 10 μM.
Scatchard parameters and inhibition constants (Ki values) for the binding of test compounds were also calculated using the EBDA/LIGAND program (McPherson, J. Pharmacol. Meth. 1985, 14, 213-228), purchased from Elsevier/Biosoft, Inc. The Ki values are expressed as the mean ±SEM of at least three separate determinations performed in triplicate.

Setting [1] is: at 10 μM, guinea pig brain membranes, approximately 0.5 nM [3H]-(+)-pentazocine, 37° C., 150 min.

With `C[C@@H]1CCN(C)[C@@H](C)[C@]1(C)CCC(=O)c1ccoc1` (relative stereo) [Example 4, 1-(3-furanyl)-3-(1.2.3.4-tetramethyl-3-piperidinyl)-1-propanone], the inhibition at 10 µM came to 78%.
As to `C[C@@H]1CCN(CC2(O)CC2)[C@@H](C)[C@]1(C)CCC(=O)CCC1CCCC1` (relative stereo) [Example 3c], the inhibition at 10 µM under setting [1] stood at 98%.
As for `C[C@@H]1CCN(C)[C@@H](C)[C@]1(C)CCC(=O)c1ccco1` (relative stereo) [Example 5, 1-(2-furanyl)-3-(1,2,3,4-tetramethyl-3-piperidinyl)-1-propanone], the inhibition at 10 µM is 57%.
The same measure, in the same setting: then `C[C@@H]1CCN(C)[C@@H](C)[C@]1(C)CCC(=O)CCC1CCCC1` (relative stereo) [Example 2, 1-cyclopentyl-5-(1,2,3,4-tetramethyl-3-piperidinyl)-3-pentanone], with 100%.
For the molecule `CCOC(=O)CC[C@]1(C)[C@H](C)CCN(Cc2ccccc2)[C@H]1C` (relative stereo) [Example 6, ethyl 3-[2,3,4-trimethyl-1-(phenylmethyl)-3-piperidine)propanoate], the inhibition at 10 µM under setting [1] was found to be 99%. For the setting “mean ±SEM of at least three separate determinations performed in triplicate, [3H]-(+)-pentazocine, EBDA/LIGAND”, this molecule gave a Ki of 39 ± 5 nM.
`C[C@@H]1CCN[C@@H](C)[C@]1(C)CCC(=O)CCC1CCCC1` (relative stereo) [Example 3b, 1-cyclopentyl-5-(2,3,4-trimethyl-3-piperidinyl)-3-pentanone]: the inhibition at 10 µM under setting [1] stood at 96%.
`CC1N(CC2(O)CC2)CCC2CCCCC21CCC(=O)CCC1CCCC1` (stereo not drawn) [Example 10]: the inhibition at 10 µM under setting [1] is 84%.
Take `CCOC(=O)CC[C@]1(C)[C@H](C)CCN(C)[C@H]1C` (relative stereo) [Example 1, ethyl 3-(1,2,3,4-tetramethyl-3-piperidine)propanoate]: under setting [1], the inhibition at 10 µM came out at 70%.

The term inhibition denotes the relative decrease from the control value, in per cent. One may read the Ki as a measure of affinity in units of concentration, obtained from inhibition or displacement. Low values mean tighter binding, high ones weaker binding.
